Entries after “also recorded” stand apart in the source; their conditions may differ.
Assays:
Type in all cases: in vivo, human
Collagen IV = assay: Measurement of Collagen-IV following multiple dose administration of CHP (Study 0202-71); details: healthy volunteers, multiple oral doses of CHP for 14 days; P-value 0.0016 (t-test), 0.0047 (Wilcoxon-test)
From the text: Example 7—Study Title: Measurement of Collagen-IV Following Multiple Dose Administration of CHP-Study 0202-71—(FIG. 8)
Using a one-sample two-sided t-test, a P-value of 0.0016 was obtained, indicating a 99.8% that the decreased observed was not the result of chance. Using a one-sample two-sided Wilcoxon-test, a P-value of 0.0047 was obtained, indicating a 99.5% that the decreased observed was not the result of chance.

[1] = Pre-dose endogenous plasma concentrations of CHP and THP in healthy volunteers (Study 0202-71), HPLC; details: healthy subjects
Experimental: Example 8—Study Title: Determination of Pre-Dose Endogenous Concentrations of CHP in Healthy Volunteers (Study 0202 71) (FIG. 11)
According to the examples in this invention, the following ICH-GCP Clinical Phase I study has been performed in healthy subjects for the assessment of the pharmacokinetic profiles of CHP and THP and the determination of the pre-dose endogenous CHP blood plasma concentrations, which were measured for all healthy volunteers directly before CHP administration using a validated, sensitive and selective HPLC bioanalytical method.
Example 9—Study Title: Determination of Pre-Dose Endogenous Concentrations of THP in Healthy Volunteers (Study 0202 71)—(FIG. 11)
According to the examples in this invention, the following ICH-GCP Clinical Phase I study has been performed in healthy volunteers for the assessment of the pharmacokinetic profiles of THP and to determine the pre-dose endogenous THP plasma concentrations, which were measured for all healthy volunteers directly before CHP administration using a validated, sensitive and selective HPLC bioanalytical method. This was performed before both CHP administrations (i.e. for 2.0 g and 3.0 g). • The mean endogenous THP concentration in healthy subjects, calculated across all dose groups, was 0.97±1.15 μg CHP/ml of plasma.

[2] = test system: adenocarcinoma and liver metastases, pancreatic cancer and bladder cancer; assay: Phase II clinical studies IPSS-A04, IPSS-B013, IPSS-D002: anti-tumour activity
From the text: Title: Phase II—CHP as antitumour agent in patients with resected colorectal cancer and liver metastasis; 60 patients—Study IPSS-A04 (Example 12.1).
Title: Phase II—CHP in patients with locally advanced or metastatic pancreatic cancer—14 patients Study IPSS B013 (Example 12.2).
Title: Evaluation of safety and efficacy of CHP in patients with urogenital Cancer—25 patients—Study IPSS-D002 (Example 12.3).

[3] = Single ascending oral doses of CHP (Study 1001-68) and single IV dose (Study 0302-72): pharmacokinetics and safety in healthy volunteers
From the text: study title Safety, tolerability and pharmacokinetic profile of single ascending doses of oral cis-4-hydroxy-L-proline (CHP) in healthy volunteers Galmed study no. 1001-68-. Results FIGS. 3 and 4.
Study title: Single Dose Absolute Bioavailability (intravenous IV solution) and Safety Study of CHP in Healthy Volunteers-GALMED Study No: 0302-72. Results are in (FIGS. 5 and 6)
Six healthy volunteers (male, caucasian—18-45 years old) were recruited from the GCP-Galmed clinical centre. All healthy volunteers provided written informed consent prior to study participation. The study was approved by the independent Ethical Committee.
All volunteers were orally administered 2, 4, 6, 8, 10 and 12 grams of CHP with a wash out period of at least one week between doses of CHP.
The following blood and urine samples were collected for determination of the pharmacokinetics parameters of CHP and THP:
10 hours and immediately prior to administration of CHP (0 Hour), and at 0.25, 0.5, 1, 1.5, 2, 2.5, 3, 4, 5, 6, 12 and 24 hours after administration of CHP.
Urine was collected for the determination of the CHP and THP concentrations and the calculation of the elimination parameters of CHP and THP.
Six healthy volunteers (male, caucasian—18-45 years old) were recruited from the GCP-Galmed clinical centre. All healthy volunteers provided written informed consent prior to study participation. The study was approved by the independent Ethical Committee. Single doses of CHP were intravenously administered: 2.0 g, 4.0 g (2×2.0 g). Each dose level was administered to all healthy volunteers. There was a washout period of at least one week between doses.
The following safety parameters were determined at the pre- and post-study examinations: • 1. Vital signs • 2. Clinical laboratory: Blood chemistry, Haematology, Coagulation, Urinalysis • 3. Adverse events (Signs and Symptoms) have been recorded in each of the two treatment periods.

[4] = test system: Alpha Glutathione S-Transferase (α-GST); assay: Measurement of α-Glutathione-S-Transferase following multiple dose administration of CHP (Study 0202-71); details: healthy volunteers
From the text: Example 6—Measurement of α-Glutathione-S-Transferase Following Multiple Dose Administration of CHP (Study 0202-71)—(FIG. 7)
Study title: Measurement of α-Glutathione-S-Transferase following multiple dose administration of CHP (Study 0202-71)
12 healthy Caucasian males were recruited (age: 18-45 years). Multiple doses of CHP were orally administered: • 4×2.0 g CHP per day, for 14 consecutive days (total daily dose=8.0 g CHP) • 4×3.0 g CHP per day, for 14 consecutive days (total daily dose=12.0 g CHP)
To determine the effect of CHP on the blood concentration of Alpha Glutathione S-Transferase (α-GST) following the administration of: • 4×2.0 g CHP per day, for 14 consecutive days (total daily dose=8.0 g CHP) • 4×3.0 g CHP per day, for 14 consecutive days (total daily dose=12.0 g CHP)
The P-value obtained was 0.0017, indicating a 99.8% that the decreased observed was not the result of chance. A one-sample two-sided t-test was used, using the data from day 0-day 17.

[5] = test system: patients with advanced cancer disease; assay: Efficacy, safety and Quality of Life of 25 clinical cases with advanced cancer treated with oral and intravenous CHP
From the text: Example 11—Study Title: Evaluation of the Efficacy, Safety and Quality of Life (QoL) of 25 Clinical Cases in Patients with Advanced Cancer Disease Treated with Oral and Intravenous Formulations of Cis-4-Hydroxy-L-Proline (CHP)
25 patients (15 female and 10 male) have been treated with oral and/or intravenous CHP: • Mean age was over 60 years with maximum of 82 and minimum of 36 years. • 15 Patients considered as “elderly patients”—60-82 years (60%) • Patients 50-60 years (20%) • No further demographic data were documented. • Complete clinical case documents have been prepared for each patient.

[6] = healthy subjects, after oral administration of CHP 2 g-12 g

O=C(O)[C@@H]1C[C@H](O)CN1 [CHP, cis-4-hydroxy-L-proline]
Collagen IV levels in blood (Collagen IV): inhibits significantly
Average Cmax, molar equivalent in blood ([1]; Study 0202-71): 462.2±212.1 μM CHP/ml blood
Average Cmax ([1]; Study 0202-71, after CHP administration): 30.29±13.91 μg CHP/ml plasma
Anti-tumour activity in patients [2]: anti-tumour activities
Vital parameters, clinical chemistry, haematological and urinalysis findings ([3]; CHP administered orally and intravenously to healthy volunteers (Examples 3 and 4)): all within the normal range
Oral clearance (average) [3, 6]: 199.72 mL/min
Volume of distribution (average) [3, 6]: 63.94 L
Correlation of Cmax and AUC(0-∞) with dose ([3]; healthy subjects, oral CHP doses 2 g-12 g): dose linearity
Metabolism by the liver microsomal enzyme system ([3]; human, in vivo): isomerisation, hydroxylation and demethylation
half-life ([3]; male, human, in vivo, healthy subjects, after oral administration of CHP 2 g-12 g, read-out: Elimination half life (average) (converted)): 3.7 h
MRT ([3]; male, human, in vivo, healthy subjects, after oral administration of CHP 2 g-12 g, read-out: Mean residence time (MRT) (average)): 4.15 h
Tmax ([3]; male, human, healthy subjects, plasma, after oral administration of CHP 2 g-12 g): 1.24 h
Liver cell damage ([4]; multiple oral doses of CHP for 14 days): no effect of liver cell damage
α-GST levels in blood ([4]; oral 4×2.0 g or 4×3.0 g CHP per day for 14 days, P-value 0.0017, one-sample two-sided t-test, day 0-day 17): inhibits significantly; also recorded: highly significant
Tolerability of long-term treatment ([5]; 1-13 month, 2-22 gram/day CHP as monotherapy, 25 patients): well tolerated
Toxic side effects, adverse events ([5]; 25 patients with advanced cancer, CHP monotherapy): No adverse events or side effects occurred were clinically relevant; also recorded: no toxic side effects or serious adverse events
Healing ([5]; advanced cancer patients treated with CHP): In one case healing was achieved
Course of disease in most of the patients ([5]; advanced cancer, no progression, no ascites, no obstruction): quite long time of stable disease

Source: US10328051B2, “Proline or proline derivatives for the treatment of dementia” (priority 2014, dated 2019)
